Source: patent US20260256738A1, “METHODS OF TREATING CANCER WITH A RAS MUTATION” (Immuneering Corporation, priority 2023, published 2026)

Tests used:
[1] = Plasma Stability (% remaining @2 hour); format: in vitro ADME; conditions: Beagle Dog; 2 μM
Colon-26 KRAS-G12D tumor = assay: Colon-26 Model (KRAS G12D CRC): Efficacy & Safety; format: in vivo; conditions: Colon-26 KRAS-G12D in Balb/c
Method: Female athymic BALB/c nude or BALB/c mice (Beijing Vital River Laboratory Animal Technology Co., Ltd.), approximately 8-10 weeks old were used in these studies. Animals were maintained in individually vented cages on a 12-h light-dark cycle. Food and water were available ad libitum. The Colon-26 tumor cells were maintained in vitro with RPMI1640 medium supplemented with 10% fetal bovine serum at 37° C. in an atmosphere of 5% CO2 in air. The cells in exponential growth phase were harvested and quantitated by cell counter before tumor inoculation. […] Randomization was started when the mean tumor size reached approximately 125 mm^3. A total of 84 tumor-bearing mice were enrolled in the study and allocated into 7 treatment groups (12 mice per group). Also 12 non-tumor-bearing mice were assigned as un-treated group.
Animals were treated with either vehicle (10% DMSO/90% [20% SBE-β-CD in saline], pH 5) or vehicle containing compounds at the indicated doses by gavage (p.o.) twice daily for approximately 28-42 days (BID×28-42 p.o.), or to ethical endpoints (BWL>20%; Median Tumor Volume (MTV)>2000 mm^3; Individual TV>3000 mm^3; clinical signs of unwell). Clinical signs of unwell was characterized, but not limited to the following. Severe dehydration, hypothermia, abnormal/labored respiration, lethargy, obvious pain, diarrhea, skin lesions, neurological symptoms, impaired mobility (not able to eat or drink) due to significant ascites and enlarged abdomen, astasia, continuous prone or lateral position, signs of muscular atrophy, paralytic gait, clonic convulsions, tonic convulsions, persistent bleeding from body orifice. Dosing as well as tumor and body weight measurements were conducted in a Laminar Flow Cabinet.
Animals were checked daily for morbidity and mortality. During routine monitoring, the animals were checked for any effects of tumor growth and treatments on behavior such as mobility, food and water consumption, body weight gain/loss (body weights were measured twice per week after randomization), eye/hair matting and any other abnormalities. Mortality and observed clinical signs were recorded for individual animals in detail.
Tumor volumes were measured twice per week after randomization in two dimensions using a caliper, and the volume was expressed in mm3 using the formula: V=(L×W×W)/2, where V is tumor volume, L is tumor length (the longest tumor dimension) and W is tumor width (the longest tumor dimension perpendicular to L). Results were presented as the median tumor volume, expressed in mm^3+/−interquartile range, of each group. Tumor Growth Inhibition; TGI %=[1−(Ti/(Ci)]×100; where Ti as the median tumor volume of the treatment group on the measurement day, Ci as the median tumor volume of control group at the measurement day.
The body weights and tumor volumes were measured by using StudyDirector™ software (version 3.1.399.19).
The protocol and any amendment(s) or procedures involving the care and use of animals in this study were reviewed and approved by the Institutional Animal Care and Use Committee (IACUC) of CrownBio prior to execution. During the study, the care and use of animals were conducted in accordance with the regulations of the Association for Assessment and Accreditation of Laboratory Animal Care (AAALAC).

[2] = Plasma Stability (% remaining @2 hour); format: in vitro ADME; conditions: CD-1 Mouse; 2 μM
CYP450 2D6 = CYP450 2D6 (Homo sapiens, UniProt P10635); assay: CYP450 Panel; conditions: 10 μM; substrate dextromethorphan; in % (unit assumed)
Chain of CYP450 2D6 (P10635 whole entry): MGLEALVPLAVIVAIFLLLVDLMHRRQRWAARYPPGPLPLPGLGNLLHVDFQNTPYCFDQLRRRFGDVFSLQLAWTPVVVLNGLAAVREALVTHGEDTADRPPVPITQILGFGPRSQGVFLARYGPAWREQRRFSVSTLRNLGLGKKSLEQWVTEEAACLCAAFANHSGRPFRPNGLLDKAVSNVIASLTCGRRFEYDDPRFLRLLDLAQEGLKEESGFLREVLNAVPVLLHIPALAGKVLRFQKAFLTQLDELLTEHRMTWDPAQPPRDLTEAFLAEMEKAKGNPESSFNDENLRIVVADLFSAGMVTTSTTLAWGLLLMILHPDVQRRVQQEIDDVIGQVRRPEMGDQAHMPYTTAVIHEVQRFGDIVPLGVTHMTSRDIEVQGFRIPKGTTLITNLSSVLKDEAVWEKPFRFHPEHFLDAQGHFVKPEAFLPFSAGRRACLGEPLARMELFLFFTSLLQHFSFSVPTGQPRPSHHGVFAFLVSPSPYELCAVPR

CYP450 1A2 = biological target: T1, CYP450 1A2 (Homo sapiens, UniProt P05177); assay: CYP450 Panel; conditions: 10 μM; substrate phenacetin; in % (unit assumed)
T1 sequence (P05177 1-516): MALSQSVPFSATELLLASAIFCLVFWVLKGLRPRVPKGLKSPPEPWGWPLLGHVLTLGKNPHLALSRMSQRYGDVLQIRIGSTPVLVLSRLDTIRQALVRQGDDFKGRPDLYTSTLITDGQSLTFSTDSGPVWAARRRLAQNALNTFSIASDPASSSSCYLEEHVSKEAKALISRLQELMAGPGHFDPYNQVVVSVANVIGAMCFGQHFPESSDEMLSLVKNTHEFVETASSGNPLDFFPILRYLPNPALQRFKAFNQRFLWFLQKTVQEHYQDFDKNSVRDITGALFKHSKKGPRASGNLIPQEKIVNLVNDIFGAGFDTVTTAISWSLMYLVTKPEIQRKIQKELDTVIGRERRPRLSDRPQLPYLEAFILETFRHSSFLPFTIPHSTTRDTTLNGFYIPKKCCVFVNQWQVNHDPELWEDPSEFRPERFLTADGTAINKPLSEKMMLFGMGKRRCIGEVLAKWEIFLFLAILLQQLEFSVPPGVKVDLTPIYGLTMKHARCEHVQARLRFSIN

CYP450 2C8 = biological target: T2, CYP450 2C8 (Homo sapiens, UniProt P10632); assay: CYP450 Panel; format: in vitro ADME; conditions: 10 μM; substrate amodiaquine
T2 sequence (P10632 1-490): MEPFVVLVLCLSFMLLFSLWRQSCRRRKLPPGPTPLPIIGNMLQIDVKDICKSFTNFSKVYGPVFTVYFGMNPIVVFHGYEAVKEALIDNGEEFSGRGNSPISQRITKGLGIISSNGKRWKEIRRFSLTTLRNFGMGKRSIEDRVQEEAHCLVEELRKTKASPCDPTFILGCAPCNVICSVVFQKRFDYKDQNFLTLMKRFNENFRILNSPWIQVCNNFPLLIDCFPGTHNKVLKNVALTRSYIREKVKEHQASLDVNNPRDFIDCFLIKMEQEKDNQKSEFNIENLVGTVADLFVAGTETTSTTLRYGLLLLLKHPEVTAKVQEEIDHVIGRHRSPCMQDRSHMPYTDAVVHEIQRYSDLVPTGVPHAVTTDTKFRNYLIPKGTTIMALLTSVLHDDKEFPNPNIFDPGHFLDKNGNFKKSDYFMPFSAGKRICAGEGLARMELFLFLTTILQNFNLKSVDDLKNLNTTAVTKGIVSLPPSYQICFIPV

[3] = Microsome Stability (% remaining @1 hour); format: in vitro ADME; conditions: SD Rat; 2 μM

Row | Structure (SMILES) | Plasma stability, % Remaining @2 hour [1] | BWL (Day 14) (Colon-26 KRAS-G12D tumor; 50 mg/kg BID po) | BWL (Day 17) (Colon-26 KRAS-G12D tumor; 50 mg/kg BID po) | Plasma stability, % Remaining @2 hour [2] | CYP450 Panel 2D6 (CYP450 2D6) | CYP450 Panel 1A2 (CYP450 1A2) | CYP450 Panel 2C8 (CYP450 2C8) | Microsome stability, % Remaining @1 hour [3] | BWL (Day 14) (Colon-26 KRAS-G12D tumor; 150 mg/kg BID po) | BWL (Day 17) (Colon-26 KRAS-G12D tumor; 150 mg/kg BID po) | TGI (Day 10) (Colon-26 KRAS-G12D tumor; 150 mg/kg BID po)
1 | Cn1cnc2c(F)c(Nc3ccc(Br)cc3Cl)c(C(=O)NOCCO)cc21 [Reference 1, Selumetinib] | 100.4% | 0% | −2% | 104.8% | 5.0 | 8.3 | 18.9% | 54.6% | – | – | –
2 | CNS(=O)(=O)Nc1cccc(Cc2c(CN(C)C)c3ccc(OC(=O)N(C)C)cc3oc2=O)c1F [Compound A, 4-((dimethylamino)methyl)-3-(2-fluoro-3-((N-methylsulfamoyl)amino)benzyl)-2-oxo-2H-chromen-7-yl dimethylcarbamate] | 96.8% | – | – | 90.6% | −3.7 | 4.8 | 4% | 28.8% | 0% | 0% | 93.9%
